Source: patent US20080107619A1, “Carbohydrate based cellulase inhibitors as feeding stimulants in termites” (University of Florida Research Foundation, Inc., priority 2006, published 2008)
“Also recorded” adds a separate entry of the source.

Tested on: R. flavipes worker termites
Experiment: No-choice Petri dish in vivo feeding bioassay (feeding and mortality, 24 days)
Conditions: for Normalized Avg. Totals: relative to control [0] average; for maximum mortality: after 24 days
Method: R. flavipes colonies were collected from the University of Florida campus during spring and summer 2006. Colonies were maintained in sealed plastic boxes (30×24×10 cm) at 22±1° C. and 69±1% RH. Colonies were maintained without soil and provisioned with moist brown paper towels and wood shims. Colonies that were acclimated under the above conditions for <2 months are referred to as “field colonies”, while those held for >6 months are referred to as “lab colonies”. Unless otherwise stated, all studies reported here were run with lab colonies.
Two different termite colonies were used. A lab colony was used in bioassays that tested the effects of CBI and FMG; this was the same colony used in cellulase optimization studies, cellulase distribution studies, and for […] determination. The other colony was a field colony, which was used to repeat the FMG assay along side FMCB. The no-choice feeding bioassay was derived from a previously-developed and slightly modified caste differentiation assay reported by M. E. Scharf, et al. in “Caste differentiation responses of two sympatric Reticulitermes termite species to juvenile hormone homologs and synthetic juvenoids in two laboratory assays.” Insectes Soc. […] Acad. Sci. USA, 103 (2006) 4499-504.
Prior to treatment, paper disks 30 were weighed. Treatments and controls were held in complete darkness at approximately 26±1° C. and 69±1% RH. The inhibitor concentrations tested were 75, 50, 25, 10, 5, 1, 0.5, and 0.1 mM (approximately […] wt/wt). For each inhibitor, paper disks were treated with 50 μl of a given concentration. Control disks received 50 μl methanol alone. Treated papers were allowed to dry in a fume hood for 30 min before placing in dishes, wetting with 25 μl water, and adding 15 termites.
Termite feeding on the filter papers was readily observable and quantifiable from the bioassays. Average feeding through the entire bioassay was summed within each replicate and calculated as a percentage of feeding relative to untreated controls, then averaged across replicates.
The experimental design consisted of three replicate dishes per concentration. All assays were carried out for a total of 24 days. Termite mortality and filter paper moisture were monitored every 4th day. Every 8th day, old paper disks were replaced with new ones. These new filter paper disks were treated with identical inhibitor concentrations. The removed filter paper disks 30, showing the results of termite feeding (FIG. 6), were dried and re-weighed. At the end of each assay, data were summarized as cumulative feeding per live termite and cumulative termite mortality. Data were analyzed by non-parametric t-tests (p<0.05) with commercially-available software for use in statistical analysis, designed by SAS Institute, Cary, N.C.
FIGS. 7A-7F provide graphic data on in vivo feeding bioassays conducted with the carbohydrate-based cellulase inhibitors to assess the impact on termite feeding and survivorship. Feeding results are expressed as the cumulative percent of untreated controls through 24 days. Mortality results are expressed as percent mortality after 24 days. […] Error bars represent standard error of the mean.

[1] = 0.1 mM test conc., 1st ROUND (lab colony)
[2] = 0.1 mM test conc., 2nd ROUND (field colony)
[3] = 0.5 mM test conc., 1st ROUND (lab colony)
[4] = 0.5 mM test conc., 2nd ROUND (field colony)
[5] = 1 mM test conc., 1st ROUND (lab colony)
[6] = 1 mM test conc., 2nd ROUND (field colony)
[7] = 5 mM test conc., 1st ROUND (lab colony)
[8] = 5 mM test conc., 2nd ROUND (field colony)
[9] = 10 mM test conc., 1st ROUND (lab colony)
[10] = 10 mM test conc., 2nd ROUND (field colony)
[11] = 25 mM test conc., 1st ROUND (lab colony)
[12] = 25 mM test conc., 2nd ROUND (field colony)
[13] = 50 mM test conc., 1st ROUND (lab colony)
[14] = 50 mM test conc., 2nd ROUND (field colony)
[15] = 75 mM test conc., 1st ROUND (lab colony)
[16] = 75 mM test conc., 2nd ROUND (field colony)

## fluoromethyl glucose [FMG]
[1]
  Average Feeding in mg per Live Termite (std. err.) days 1-8: 0.52 (0.03) mg per Live Termite
  Average Feeding in mg per Live Termite (std. err.) days 9-16: 0.48 (0.10) mg per Live Termite
  Average Feeding in mg per Live Termite (std. err.) days 17-24: 0.45 (0.04) mg per Live Termite
  Normalized Avg. Totals: 0.98
[2]
  Average Feeding in mg per Live Termite (std. err.) days 1-8: 0.20 (0.04) mg per Live Termite
  Average Feeding in mg per Live Termite (std. err.) days 9-16: 0.33 (0.05) mg per Live Termite
  Average Feeding in mg per Live Termite (std. err.) days 17-24: 0.48 (0.07) mg per Live Termite
  Normalized Avg. Totals: 0.92
[3]
  Average Feeding in mg per Live Termite (std. err.) days 1-8: 0.57 (0.08) mg per Live Termite
  Average Feeding in mg per Live Termite (std. err.) days 9-16: 0.54 (0.07) mg per Live Termite
  Average Feeding in mg per Live Termite (std. err.) days 17-24: 0.44 (0.07) mg per Live Termite
  Normalized Avg. Totals: 0.96
[4]
  Average Feeding in mg per Live Termite (std. err.) days 1-8: 0.34 (0.01) mg per Live Termite
  Average Feeding in mg per Live Termite (std. err.) days 9-16: 0.34 (0.03) mg per Live Termite
  Average Feeding in mg per Live Termite (std. err.) days 17-24: 0.47 (0.03) mg per Live Termite
  Normalized Avg. Totals: 1.03
[5]
  Average Feeding in mg per Live Termite (std. err.) days 1-8: 0.55 (0.02) mg per Live Termite
  Average Feeding in mg per Live Termite (std. err.) days 9-16: 0.58 (0.03) mg per Live Termite
  Average Feeding in mg per Live Termite (std. err.) days 17-24: 0.51 (0.03) mg per Live Termite
  Normalized Avg. Totals: 0.92
[6]
  Average Feeding in mg per Live Termite (std. err.) days 1-8: 0.36 (0.04) mg per Live Termite
  Average Feeding in mg per Live Termite (std. err.) days 9-16: 0.38 (0.01) mg per Live Termite
  Average Feeding in mg per Live Termite (std. err.) days 17-24: 0.39 (0.06) mg per Live Termite
  Normalized Avg. Totals: 1.04
[7]
  Average Feeding in mg per Live Termite (std. err.) days 1-8: 0.39 (0.06) mg per Live Termite
  Average Feeding in mg per Live Termite (std. err.) days 9-16: 0.58 (0.07) mg per Live Termite
  Average Feeding in mg per Live Termite (std. err.) days 17-24: 0.39 (0.07) mg per Live Termite
  Normalized Avg. Totals: 0.72
[8]
  Average Feeding in mg per Live Termite (std. err.) days 1-8: 0.29 (0.02) mg per Live Termite
  Average Feeding in mg per Live Termite (std. err.) days 9-16: 0.29 (0.03) mg per Live Termite
  Average Feeding in mg per Live Termite (std. err.) days 17-24: 0.43 (0.05) mg per Live Termite
  Normalized Avg. Totals: 0.92
[9]
  Average Feeding in mg per Live Termite (std. err.) days 1-8: 0.32 (0.07) mg per Live Termite
  Average Feeding in mg per Live Termite (std. err.) days 9-16: 0.38 (0.09) mg per Live Termite
  Average Feeding in mg per Live Termite (std. err.) days 17-24: 0.41 (0.05) mg per Live Termite
  Normalized Avg. Totals: 0.93
[10]
  Average Feeding in mg per Live Termite (std. err.) days 1-8: 0.17 (0.02) mg per Live Termite
  Average Feeding in mg per Live Termite (std. err.) days 9-16: 0.25 (0.02) mg per Live Termite
  Average Feeding in mg per Live Termite (std. err.) days 17-24: 0.45 (0.04) mg per Live Termite
  Normalized Avg. Totals: 0.79
[11]
  Average Feeding in mg per Live Termite (std. err.) days 1-8: 0.27 (0.04) mg per Live Termite
  Average Feeding in mg per Live Termite (std. err.) days 9-16: 0.22 (0.05) mg per Live Termite
  Average Feeding in mg per Live Termite (std. err.) days 17-24: 0.34 (0.02) mg per Live Termite
  Normalized Avg. Totals: 0.83
[12]
  Average Feeding in mg per Live Termite (std. err.) days 1-8: 0.25 (0.04) mg per Live Termite
  Average Feeding in mg per Live Termite (std. err.) days 9-16: 0.31 (0.05) mg per Live Termite
  Average Feeding in mg per Live Termite (std. err.) days 17-24: 0.40 (0.02) mg per Live Termite
  Normalized Avg. Totals: 0.87
[13]
  Average Feeding in mg per Live Termite (std. err.) days 1-8: 0.30 (0.01) mg per Live Termite
  Average Feeding in mg per Live Termite (std. err.) days 9-16: 0.34 (0.01) mg per Live Termite
  Average Feeding in mg per Live Termite (std. err.) days 17-24: 0.34 (0.02) mg per Live Termite
  Normalized Avg. Totals: 0.99
[14]
  Average Feeding in mg per Live Termite (std. err.) days 1-8: 0.25 (0.02) mg per Live Termite
  Average Feeding in mg per Live Termite (std. err.) days 9-16: 0.28 (0.03) mg per Live Termite
  Average Feeding in mg per Live Termite (std. err.) days 17-24: 0.29 (0.01) mg per Live Termite
  Normalized Avg. Totals: 0.74
[15]
  Average Feeding in mg per Live Termite (std. err.) days 1-8: 0.17 (0.03) mg per Live Termite
  Average Feeding in mg per Live Termite (std. err.) days 9-16: 0.21 (0.02) mg per Live Termite
  Average Feeding in mg per Live Termite (std. err.) days 17-24: 0.28 (0.02) mg per Live Termite
  Normalized Avg. Totals: 0.67
[16]
  Average Feeding in mg per Live Termite (std. err.) days 1-8: 0.21 (0.03) mg per Live Termite
  Average Feeding in mg per Live Termite (std. err.) days 9-16: 0.19 (0.07) mg per Live Termite
  Average Feeding in mg per Live Termite (std. err.) days 17-24: 0.27 (0.05) mg per Live Termite
  Normalized Avg. Totals: 0.60
Across tested concentrations 0.1-75 mM, FIGS. 7A-7C, 8A-8B
  Effect on feeding (cumulative percent of untreated controls through 24 days): did not stimulate consumption at any concentration; also recorded: little stimulatory effects at any concentration
Field colony, FIG. 13
  mortality, field colony termites: approximately 30%
Highest FMG concentration, FIG. 7D (2 colonies averaged)
  maximum mortality: approximately 20%
Highest concentration tested, FIG. 10A
  maximum mortality: 10%
Lab colony, FIG. 13
  mortality, lab colony termites: 2-3%
